Columns and labels:
[1] = Non-GLP 7-day repeat dose beagle dog study, safety findings (SRI No. B677-13); type: in vivo, beagle dogs
Text: Clinical observations that were associated with test article administration included post-dose diarrhea and emesis. Specifically, dogs in the mid- and high-dose groups experienced slight or extreme diarrhea on Day 1 between 1 and 6 hr post-dose. Diarrhea was absent from the lowdose group. […] By Day 2, 8 of the 9 affected dogs were normal, with the exception of one highdose group female that had continued slight diarrhea. Slight to moderate emesis occurred <2 hr post-dose (and oftentimes <1 hr post-dose) in 1-3 dogs from each of the 3,4,3-L1(1,2-HOPO) treatment groups and in none of the vehicle control-treated dogs. Post-dose emesis appeared to be dose-dependent since it occurred in 0, 1, 2, and 3 dogs out of 12 dogs per group in control, low, mid, and high dose groups, respectively. Post-dose emesis is a common response to oral dose administration in dogs, and a single occurrence of it in the low dose group could be […] rather than test article-related and is not considered a dose-limiting event. Slight post-dose emesis in this one male dog was the only finding present in the 37.5 mg/kg lowdose treatment group.
No similar renal histopathology findings were found in any of the other on-study dogs. The observation of hemosiderin without fibrosis in the kidney sections from this one dog is consistent with the renal findings having developed within one to three days prior to the Day 15 necropsy. This dog also had corresponding small increases (1.8- and 1.3-fold, respectively) in the renal function markers BUN and CR on Day 15 relative to pre-test. The timing of the renal findings in this recovery group dog is surprising given the fact that 3,4,3-L1(1,2-HOPO) was administered only on Day 1. Therefore, it is unclear if these renal findings are related specifically to high-dose administration of 3,4,3-L1(1,2-HOPO). There were no toxicologically meaningful histopathology findings in any of the dogs on Day 2 or in any of the other dogs on Day 15. Similar renal findings were also absent from the non-GLP 7-day repeat dose dog study (SRI No. B677-13) where 2 dogs/sex received formulated material at higher doses for 4 days followed by equivalent doses for 3 days and then were sacrificed on Day 8.
An evaluation of the serum levels of iron, unsaturated iron binding capacity, total iron binding capacity, magnesium, and ferritin were included in the clinical pathology analysis during the dog safety studies because 3,4,3-L1(1,2-HOPO) is a potent metal chelator.

[2] = Radiolabeled in vivo ADME study in rats (with metabolite profiling); set-up: species or system Sprague Dawley rats
Text: Formulated material was used in the single dose in vivo ADME characterization studies in Sprague Dawley rats and Swiss-Webster mice with 14C-labeled 3,4,3-L1(1,2-HOPO).
Pharmacokinetic parameters and disposition/biodistribution of 3,4,3-L1(1,2-HOPO) were characterized in vivo (with the aid of two 14C labels on the spermine backbone of the parent product) in two non-GLP studies using Swiss-Webster mice and Sprague Dawley rats. The study designs for these two studies are shown in TABLE 5.1 and TABLE 5.2, respectively. Groups of six mice (3 male, 3 female) were given a single dose of [14C]-3,4,3-L1(1,2-HOPO) via iv, ip, or po routes, respectively. An additional group of six mice (3 male, 3 female) were administered the 14C-labeled API with permeability enhancer (10% sodium oleate) by oral gavage (po). Similarly, groups of six rats (3 male, 3 female) were administered a single iv dose of the 14C-labeled API or a single po dose of the 14C-labeled API with 10% sodium oleate. In each of these studies, samples were collected at scheduled time points up to 24 hr post-dose and analyzed for 14C content using liquid scintillation counting. Blood, liver, kidney, feces and urine were collected and analyzed from the mice. Blood, brain, liver, kidney, lungs, spleen, skeletal muscle tissues, gastrointestinal (GI) tract samples, carcasses, feces, and urine were collected and analyzed from the rats.
The principal excretion routes of radioactivity from [14C]-3,4,3-L1(1,2-HOPO) were both the feces and urine after an iv dose based on high levels of radioactivity in both feces and urine as well as significant radioactivity in the excretory tissues, kidney, liver and GI tract. Fecal elimination by 24 hr post-dose accounted for approximately 62% and 16% of the iv administered dose in mice and rats, respectively. Urinary excretion accounted for approximately 12-23% of the iv administered dose in these rodents with renal excretion of 14C beginning as early as 5 min after iv injection in mice. In contrast, following oral administration, excretion was primarily by the fecal route accounting for approximately 89% and 41% of the orally administered dose in mice and rats, respectively, by 24 h post-dose. Urinary excretion accounted for <1% of the orally administered dose and low radioactivity levels were detected in systemic circulation and in tissues except for the GI tract. […] Based on the colonic transit time in rats of 15.5 hr, 11 the radioactivity found in the feces in the first 24 hr after po administration is most likely unabsorbed compound. […] Metabolite profiling of [14C]-3,4,3-L1(1,2-HOPO) was performed using an HPLC method on selected urine, feces, kidney, liver, and lung samples from the Sprague Dawley rat. Only samples containing the highest total radioactive levels were selected for analysis. A total of 11 peaks were detected, of which 6 were from uncharacterized interactions between the test article and matrix components because they were also seen in spiked blank matrix controls. These 6 peaks are not metabolites and are considered alternate forms of the parent compound (e.g. complexes of the test article with metallic ions). The 5 other radioactive species (peaks P1-P4 and P10) are considered potential metabolites. Feces-specific metabolite peaks P2, P3, and P10 represented a combined 10.5-11.4% and 0.5-4.2% of the administered dose after po or iv administration, respectively, in rats. Peak P10 was the most abundant peak in all samples analyzed. It represented up to 10% of the administered dose in feces after po administration while the other two feces-specific peaks represented <1% of the administered dose after po administration. Peak P10 was also the predominant, and sometimes the only, peak in feces samples after iv administration. […]

[3] = after treatment, 2 dogs/sex, no control group

O=C(NCCCN(CCCCN(CCCNC(=O)c1cccc(=O)n1O)C(=O)c1cccc(=O)n1O)C(=O)c1cccc(=O)n1O)c1cccc(=O)n1O [3,4,3-L1(1,2-HOPO)]
renal findings ([1]; 7-day repeat dose, sacrificed on Day 8): absent | decrease in unsaturated iron binding capacity [1, 3]: 16-62% | increase in serum total iron levels compared with pretest [1, 3]: ~2 fold | emesis and diarrhea ([1]; formulated capsules once daily for 7 days, 75.1, 150, or 300 mg/kg, ~1 hr post-dose): dose dependent, transient emesis and diarrhea | oral bioavailability (F) of radioactive compound ([2]; female rats): 1.1% | oral bioavailability (F) of radioactive compound ([2]; male rats): 0.4% | mean t½ ([2]; oral administration, rats): ~60 min | Tmax ([2]; oral dose, rodents (rats)): ~42 min
